“And” between values parts separate entries of the source, which are not always exact repeats. Identical values can stand only once.
Test system: 935938-334-R-J1-PDC complex spheroid viability
Assay: Anticancer human tumor 935938-334-R-J1-PDC patient-derived small intestine adenocarcinoma cell line growth inhibition [POLQ]
Conditions: for viability, T/C: stronger effect = lower value
Method: Multicellular complex tumor spheroid response to Polymerase (POL) inhibitors (novobiocin, ART-558, RP6685) in combination with a variety of drugs and investigational agents in selected tumor cell lines
The POL inhibitors (novobiocin, ART-558, and RP6685) were evaluated both individually and in combination with standard of care and investigational anticancer small molecules within a complex spheroid model of solid tumors. . Complex spheroids include a stromal component modeled by human endothelial cells (HUVEC) and fibroblasts modeled by human mesenchymal stem cells (MSCs). The concentration ranges selected for each drug and investigational agent were based upon clinically achievable concentrations if the clinical Cmax of the agent was known.
Compounds. The drugs and investigational agents: novobiocin (NSC847541), ART-558 (NSC835418), RP-6685 (NSC848927), peposertib (NSC802822), ceralasertib (NSC780249), elimusertib (NSC800525), camonsertib (NSC841442), AZD-1390 (NSC803789), olaparib (NSC753686), talazoparib (NSC767125), rucaparib (NSC756644), sotorasib (NSC818433), MRTX-1133 (NSC836407), SN-38 (NSC673596), topotecan (NSC609699), epotoside (NSC141540), doxorubicin (NSC123127), gemcitabine (NSC613327), 5-fluorouracil (NSC19893), paclitaxel (NSC125973), vemurafenib (NSC761431), MSA-2 (NSC828583), SN-011 (NSC837082), adavosertib (NSC754352), prexasertib (NSC758257), carboplatin (NSC241240) and oxaliplatin (NSC266046), were obtained from the National Cancer Institute (NCI) Developmental Therapeutics Program Chemical Repository (21). The FDA-approved anticancer drug set is available from the Developmental Therapeutics Program at https://dtp.cancer.gov/organization/dscb/obtaining/. […] The stock solutions were prepared in dimethyl sulfoxide (DMSO, Sigma-Aldrich, St. Louis, MO, cat. D2650), except for the platinum compounds which were prepared in saline (Quality Biological, Gaithersburg, MD, cat. 114-055-101), at 800-fold the tested concentration and stored at -70 degrees C prior to their use. All drugs and investigational agents were tested over a range starting from a high concentration at or near the clinical Cmax and decreasing in half-log increments. If the clinical Cmax for an agent had not been determined, the highest concentration tested was 10 microM, except for SN-38, which was tested at a high concentration of 1 microM.
Cell Culture. All cells were maintained in an incubator at 37 degrees C and 5% CO2 with 95% humidity. The PDC lines were cultured according to standard operating procedures established by the NCI PDMR (https://pdmr.cancer.gov). Table 3 of the manuscript, lists the cell lines along with the number of the three cell types plated to form the mct-spheroids and media for tumor cell growth. After thawing, all PDC lines, except 997537-175-T-J1-PDC and 415267-285-R-J2-PDC, were cultured in Matrigel-coated flasks prepared with a working solution of 1X Ham's F-12 nutrient mix, without supplementation (Thermo Fisher Scientific, cat. 11765054), 100 U/mL penicillin-streptomycin (Thermo Fisher Scientific, cat. 15140122), and 2.5% Matrigel (Corning Inc., Corning, NY, cat. 354248) for the first three passages. The two PDC lines 997537-175-T-J1-PDC and 415267-285-R-J2-PDC were cultured on uncoated flasks. The 857933-349-R-J2-PDC line was cultured in 6C/Colon 1B media containing advanced DMEM/F-12 (Thermo Fisher Scientific, cat. 12634028), 10 mM HEPES (Thermo Fisher Scientific, cat. 15630080), 1X GlutaMAX supplement (Thermo Fisher Scientific, cat. 35050061), 0.1 mg/mL primocin (InvivoGen, San Diego, CA, cat. ant-pm-2), 10% defined fetal bovine serum, heat inactivated (HyClone Laboratories Inc., Logan, UT, cat. SH30070.03HI), 50% L-WRN conditioned media (ATCC, cat. CRL-3276), 1.25 mM N-Acetyl-L-cysteine (Sigma-Aldrich, cat. A9165), 10 mM nicotinamide (Sigma-Aldrich, cat. N0636), 1X B-27 supplement (Thermo Fisher Scientific, cat. 17504044), 1X N-2 supplement (Thermo Fisher Scientific, cat. […]

[1] = curve of first compound, second compound 0.0316 µM
[2] = curve of first compound, second compound 0.1 µM
[3] = curve of first compound, second compound 0.316 µM
[4] = curve of first compound, second compound 1 µM
[5] = curve of first compound, second compound 3.16 µM
[6] = curve of first compound, second compound 10 µM
[7] = second compound 0.0316 µM, first compound 0.0316 µM
[8] = second compound 0.0316 µM, first compound 0.1 µM
[9] = second compound 0.1 µM, first compound 0.0316 µM
[10] = second compound 0.1 µM, first compound 0.1 µM
[11] = second compound 0.316 µM, first compound 0.0316 µM
[12] = second compound 0.316 µM, first compound 0.1 µM
[13] = second compound 1 µM, first compound 0.0316 µM
[14] = second compound 1 µM, first compound 0.1 µM
[15] = second compound 3.16 µM, first compound 0.0316 µM
[16] = second compound 3.16 µM, first compound 0.1 µM
[17] = second compound 10 µM, first compound 0.0316 µM
[18] = second compound 10 µM, first compound 0.1 µM
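Note: spheroids exposed to drugs for seven days before viability read.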
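Throughout, for viability, T/C: 100% = DMSO vehicle control wells.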

Work on `Cn1ncnc1[C@H]1c2n[nH]c(=O)c3cc(F)cc(c23)N[C@@H]1c1ccc(F)cc1` + Cc1cccc(N(C)C(=O)C2C(O)CCN2c2nc(C)cc(C(F)(F)F)c2C#N)c1 yielded an IC50 [1] greater than 0.1 µM, an IC50 [2] greater than 0.1 µM and an IC50 [3] greater than 0.1 µM. It also gave an IC50 [4] greater than 0.1 µM, an IC50 [5] greater than 0.1 µM and an IC50 [6] greater than 0.1 µM. The viability, T/C (second compound 0.0316 µM, first compound 0.000316 µM) was 143%, the viability, T/C (second compound 0.0316 µM, first compound 0.001 µM) was 88.6% and the viability, T/C (second compound 0.0316 µM, first compound 0.00316 µM) was 102%. For the same compound, the viability, T/C (second compound 0.0316 µM, first compound 0.01 µM) was 94.5%, the viability, T/C [7] was 97.8% and the viability, T/C [8] was 102%. The viability, T/C (second compound 0.1 µM, first compound 0.000316 µM) was 85.5%, the viability, T/C (second compound 0.1 µM, first compound 0.001 µM) was 91.3% and the viability, T/C (second compound 0.1 µM, first compound 0.00316 µM) was 107%. It also gave a viability, T/C (second compound 0.1 µM, first compound 0.01 µM) of 143%, a viability, T/C [9] of 111% and a viability, T/C [10] of 70%. It also gave a viability, T/C (second compound 0.316 µM, first compound 0.000316 µM) of 108%, a viability, T/C (second compound 0.316 µM, first compound 0.001 µM) of 107% and a viability, T/C (second compound 0.316 µM, first compound 0.00316 µM) of 80.5%. For the same compound, the viability, T/C (second compound 0.316 µM, first compound 0.01 µM) was 108%, the viability, T/C [11] was 91% and the viability, T/C [12] was 83.4%. For the same compound, the viability, T/C (second compound 1 µM, first compound 0.000316 µM) was 89.8%, the viability, T/C (second compound 1 µM, first compound 0.001 µM) was 99.6% and the viability, T/C (second compound 1 µM, first compound 0.00316 µM) was 97.7%. For the same compound, the viability, T/C (second compound 1 µM, first compound 0.01 µM) was 82.1%, the viability, T/C [13] was 114% and the viability, T/C [14] was 60.4%. The viability, T/C (second compound 3.16 µM, first compound 0.000316 µM) was 125%, the viability, T/C (second compound 3.16 µM, first compound 0.001 µM) was 80.8% and the viability, T/C (second compound 3.16 µM, first compound 0.00316 µM) was 105%. The viability, T/C (second compound 3.16 µM, first compound 0.01 µM) was 88.5%, the viability, T/C [15] was 89.9% and the viability, T/C [16] was 89.6%. The viability, T/C (second compound 10 µM, first compound 0.000316 µM) was 103%, the viability, T/C (second compound 10 µM, first compound 0.001 µM) was 87.5% and the viability, T/C (second compound 10 µM, first compound 0.00316 µM) was 77.6%. The viability, T/C (second compound 10 µM, first compound 0.01 µM) was 118%, the viability, T/C [17] was 87.9% and the viability, T/C [18] was 89%.
With `CCc1cc2c(N3CCc4c(cc(Cn5ccnc5)cc4-c4cn(C)nc4C(F)(F)F)C3=O)ccnc2c(OC)n1` the viability, T/C (compound 0.0316 µM) was 78.9% and 69.7% and 64.6%, the viability, T/C (compound 0.1 µM) was 56.2% and 71.7% and 57.9% and the viability, T/C (compound 0.316 µM) was 70.9% and 68.9% and 69.7%. For the same compound, the viability, T/C (compound 1 µM) was 61.2% and 62% and 60.9%, the viability, T/C (compound 3.16 µM) was 64.3% and 76.9% and 69.6% and the viability, T/C (compound 10 µM) was 57.7% and 50.2% and 58.4%. For the same compound, the IC50 (curve of compound) was greater than 10 µM.
For `O=C(c1cc(Cc2n[nH]c(=O)c3ccccc23)ccc1F)N1CCN(C(=O)C2CC2)CC1` + COC1C(OC(N)=O)C(O)C(Oc2ccc3c(O)c(NC(=O)c4ccc(O)c(CC=C(C)C)c4)c(=O)oc3c2C)OC1(C)C, the IC50 [1] was greater than 10 µM, the IC50 [2] was greater than 10 µM and the IC50 [3] was greater than 10 µM. For the same compound, the IC50 [4] was greater than 10 µM, the IC50 [5] was greater than 10 µM and the IC50 [6] was greater than 10 µM. It also gave a viability, T/C [7] of 83.4%, a viability, T/C [8] of 89.7% and a viability, T/C (second compound 0.0316 µM, first compound 0.316 µM) of 87.5%. The viability, T/C (second compound 0.0316 µM, first compound 1 µM) was 110%, the viability, T/C (second compound 0.0316 µM, first compound 3.16 µM) was 79.9% and the viability, T/C (second compound 0.0316 µM, first compound 10 µM) was 64.6%. For the same compound, the viability, T/C [9] was 101%, the viability, T/C [10] was 99.1% and the viability, T/C (second compound 0.1 µM, first compound 0.316 µM) was 95.9%. It also gave a viability, T/C (second compound 0.1 µM, first compound 1 µM) of 90.8%, a viability, T/C (second compound 0.1 µM, first compound 3.16 µM) of 80.8% and a viability, T/C (second compound 0.1 µM, first compound 10 µM) of 58%. The viability, T/C [11] was 78.4%, the viability, T/C [12] was 98.6% and the viability, T/C (second compound 0.316 µM, first compound 0.316 µM) was 90.3%. It also gave a viability, T/C (second compound 0.316 µM, first compound 1 µM) of 77.4%, a viability, T/C (second compound 0.316 µM, first compound 3.16 µM) of 88.7% and a viability, T/C (second compound 0.316 µM, first compound 10 µM) of 85.2%. It also gave a viability, T/C [13] of 76.7%, a viability, T/C [14] of 84.6% and a viability, T/C (second compound 1 µM, first compound 0.316 µM) of 102%. For the same compound, the viability, T/C (second compound 1 µM, first compound 1 µM) was 87.5%, the viability, T/C (second compound 1 µM, first compound 3.16 µM) was 94.5% and the viability, T/C (second compound 1 µM, first compound 10 µM) was 79.4%. It also gave a viability, T/C [15] of 119%, a viability, T/C [16] of 85% and a viability, T/C (second compound 3.16 µM, first compound 0.316 µM) of 107%. For the same compound, the viability, T/C (second compound 3.16 µM, first compound 1 µM) was 75.9%, the viability, T/C (second compound 3.16 µM, first compound 3.16 µM) was 64.6% and the viability, T/C (second compound 3.16 µM, first compound 10 µM) was 84%. The viability, T/C [17] was 94.9%, the viability, T/C [18] was 102% and the viability, T/C (second compound 10 µM, first compound 0.316 µM) was 80.3%. The viability, T/C (second compound 10 µM, first compound 1 µM) was 83.8%, the viability, T/C (second compound 10 µM, first compound 3.16 µM) was 81.7% and the viability, T/C (second compound 10 µM, first compound 10 µM) was 69.5%.

Reference: PubChem BioAssay AID1963829 (Molecular Pharmacology Branch, DTP, NCI, 2024)
